Here are results for 6 molecules from patent US9777045B2, “Immunogenic compositions and methods” (Longhorn Vaccines and Diagnostics, LLC, priority 2007, dated 2017).

Assay [1] deals with peptide corresponding to the peptide-BSA conjugate used for injection. Kind of assay: ELISA for anti-peptide antibodies (individual mouse sera 1:100). It counts as in vivo, mice. The note with it: for Average Absorbance Values of sera for tested peptides, Day 14 / Average Absorbance Values of sera for tested peptides, Day 29 / Average Absorbance Values of sera for tested peptides, Day 42 / Average Absorbance Values of sera for tested peptides, Pre: group average; for Average Absorbance Values of sera for tested peptides, Day 14 / Average Absorbance Values of sera for tested peptides, Day 29 / Average Absorbance Values of sera for tested peptides, Day 42 / Average Absorbance Values of sera for tested peptides, Pre / Individual absorbancy values of sera for tested peptides, Day 14 / Individual absorbancy values of sera for tested peptides, Day 29 / Individual absorbancy values of sera for tested peptides, Day 42: mice; for Average Absorbance Values of sera for tested peptides, Pre / Individual absorbancy values of sera for tested peptides, Pre: pre-bleed; for Individual absorbancy values of sera for tested peptides, Pre: mice injected with peptide-BSA conjugate, absorbance 450 nm; for Individual absorbancy values of sera for tested peptides, Pre / Individual absorbancy values of sera for tested peptides, Day 14 / Individual absorbancy values of sera for tested peptides, Day 29 / Individual absorbancy values of sera for tested peptides, Day 42: sera 1:100. The protocol: Individual sera were tested at a final dilution of 1:100 (in PBS-T) on Nunc Maxisorp® plates coated with the peptide corresponding to the peptide-BSA conjugate used for injection, at a concentration of 1 μg/ml in PBS (100 μl/well). One hundred microliters of diluted sera were reacted on the coated plate for 30 to 60 min at room temperature, and unbound material was removed by washing three times with PBS-T. Anti-peptide antibodies were detected with peroxidase-labeled goat anti-mouse IgG (γ-specific), diluted 1:10000 in PBS-T (100 μl/well; Jackson ImmunoResearch Laboratories, Inc., West Grove, Pa., USA). Following 30-min incubation, the wells were washed five times with PBS-T to removed unbound material and 100 μl of substrate (TMB; Kirkegaard & Perry Laboratories, Inc., Gaithersburg, Md., USA) was added to each well. The reaction was allowed to proceed for 15 min in the dark and stopped by addition of 100 μl of TMB Stop Solution per well (Kirkegaard & Perry). Absorbance was determined at 450 nm.

Assay [2] deals with live Wuhan (Influenza A/Wuhan/359/95, H3N2). Kind of assay: ELISA for anti-Wuhan antibodies (mouse sera 1:100). The format is in vivo, mice. To be noted: for Absorbance values for individual sera tested on influenzavirus strain Wuhan, Pre: pre-bleed; for Anti-Wuhan Absorbance Day 42 (group average) / Anti-Wuhan Absorbance Pre-Bleed (group average): averaged results. Background: In an ELISA, binding on a coated surface is turned into a signal by an enzyme label.

Assay [3] relates to IFN-γ induction in splenocytes. The format is cell-based. To be noted: mice immunized with peptide-BSA conjugates, 72 h in vitro treatment.
For assay [4], the system named is Influenza H1N1, H3N2, and H5N1. The note with it: in vivo.
A further assay relates to live H3N2 virus. The format is in vivo, cotton rats (Sigmodon hispidus). The note with it: cotton rats; 100 μg IM on day 0 and day 28, in CFA or in PBS; sera day 0, 28, 42.
[5] abbreviates: mice, 5 μg per injection, sera 1:100.
[6] abbreviates: mice, 20 μg per injection, sera 1:100.
Where [7] appears, read: sera 1:100, dose per inject 5 μg.
Setting [8] is: sera 1:100, dose per inject 20 μg.
Where [9] appears, read: sera 1:100, dose per injection 5 μg.
Where [10] appears, read: sera 1:100, dose per injection 20 μg.

“And” between values parts separate entries of the source, which are not always exact repeats. Equal values may be shown once. Read-outs that look alike come from different tables or passages of the source.

With GNLFIAP [Peptide 5910], in assay [1] (5 μg per injection), the “Average Absorbance Values of sera for tested peptides, Day 14” value (shortened to “Average Absorbance Values of sera … Day 14”) is 0.113; the “Average Absorbance Values of sera for tested peptides, Day 29” value (from here on “Average Absorbance Values of sera … Day 29”) amounted to 0.140; the “Average Absorbance Values of sera for tested peptides, Day 42” value (“Average Absorbance Values of sera … Day 42” for short) was 0.318; the “Average Absorbance Values of sera for tested peptides, Pre” value (“Average Absorbance Values of sera … Pre” for short) is 0.154. Further, in assay [1] (5 μg per injection), the “Individual absorbancy values of sera for tested peptides, Pre” value (from here on “Individual absorbancy values of sera … Pre”) was 0.100 and 0.110 and 0.097 and 0.308; the “Individual absorbancy values of sera for tested peptides, Day 14” value (“Individual absorbancy values … Day 14” for short) is 0.089 and 0.090 and 0.086 and 0.186; the “Individual absorbancy values of sera for tested peptides, Day 29” value (“Individual absorbancy values … Day 29” below) was 0.099 and 0.226 and 0.085 and 0.149; the “Individual absorbancy values of sera for tested peptides, Day 42” value (shortened to “Individual absorbancy values … Day 42”) is 0.123 and 0.306 and 0.680 and 0.162. For the same molecule, in assay [1] (20 μg per injection), the “Average Absorbance Values of sera … Day 14” value worked out at 0.102; the “Average Absorbance Values of sera … Day 29” value is 0.202; the “Average Absorbance Values of sera … Day 42” value turned out to be 0.237; the “Average Absorbance Values of sera … Pre” value came to 0.083. In assay [1] (20 μg per injection), the “Individual absorbancy values of sera … Pre” value is 0.081 and 0.083 (2×) and 0.087; the “Individual absorbancy values … Day 14” value is 0.104 and 0.081 and 0.078 and 0.144; the “Individual absorbancy values … Day 29” value was 0.296 and 0.077 and 0.133 and 0.302; the “Individual absorbancy values … Day 42” value is 0.279 and 0.164 and 0.175 and 0.333. Besides, the “Absorbance values for individual sera tested on influenzavirus strain Wuhan, Pre” value in assay [2] (setting [5]) was 0.076 and 0.092 and 0.068 and 0.109. Also, the “Absorbance values for individual sera tested on influenzavirus strain Wuhan, Pre” value in assay [2] (setting [6]) is 0.069 and 0.070 and 0.071 and 0.092. The “antibody responses that bound to native influenza (whole H3 virus), day 42 vs before” value in assay [2] (mice, conjugates at 5-μg and 20-μg doses) is on record as “good antibody responses”. Besides, in assay [2] (setting [7]), the “Anti-Wuhan Absorbance Day 42 (individual mice)” value was 0.449 and 0.341 and 0.288 and 0.088; the “Anti-Wuhan Absorbance Pre-Bleed (individual mice)” value was 0.076 and 0.092 and 0.068 and 0.109. Also, in assay [2] (setting [8]), the “Anti-Wuhan Absorbance Day 42 (individual mice)” value is 0.546 and 0.096 and 0.271 and 0.385; the “Anti-Wuhan Absorbance Pre-Bleed (individual mice)” value is 0.069 and 0.070 and 0.071 and 0.092. For the same molecule, in assay [2] (setting [9]), the “Anti-Wuhan Absorbance Day 42 (group average)” value is recorded as 0.291 and the “Anti-Wuhan Absorbance Pre-Bleed (group average)” value turned out to be 0.086. Moreover, in assay [2] (setting [10]), the “Anti-Wuhan Absorbance Day 42 (group average)” value was determined as 0.324 and the “Anti-Wuhan Absorbance Pre-Bleed (group average)” value came to 0.075. In addition, the “IFN-γ response of spleen cell supernatants (in words)” value in assay [3] is recorded as “strongest IFN-γ response”. Besides, in assay [3] (listed as GNLFIAP), the “IFN-γ response of spleen cell supernatants (in words)” value is given as “good IFN-γ response”.
Take DWSGYSGSFVQHPELTGL [Peptide 5912]: in assay [1] (5 μg per injection), the “Average Absorbance Values of sera … Day 14” value stood at 0.162; the “Average Absorbance Values of sera … Day 29” value came out at 0.325; the “Average Absorbance Values of sera … Day 42” value came to 0.693; the “Average Absorbance Values of sera … Pre” value amounted to 0.130. Besides, in assay [1] (5 μg per injection), the “Individual absorbancy values of sera … Pre” value is 0.090 and 0.094 and 0.107 and 0.156; the “Individual absorbancy values … Day 14” value is 0.287 and 0.109 and 0.230 and 0.147; the “Individual absorbancy values … Day 29” value was 0.175 and 0.137 and 0.700 and 0.138; the “Individual absorbancy values … Day 42” value was 0.154 (2×) and 0.167 and 1.758. In assay [1] (20 μg per injection), the “Average Absorbance Values of sera … Day 14” value was 0.130; the “Average Absorbance Values of sera … Day 29” value was 0.123; the “Average Absorbance Values of sera … Day 42” value came to 0.155; the “Average Absorbance Values of sera … Pre” value stood at 0.100. Besides, in assay [1] (20 μg per injection), the “Individual absorbancy values of sera … Pre” value was 0.100 and 0.098 and 0.090 and 0.123; the “Individual absorbancy values … Day 14” value is 0.091 and 0.082 and 0.103 and 0.088; the “Individual absorbancy values … Day 29” value was 0.098 and 0.146 and 0.099 and 0.096; the “Individual absorbancy values … Day 42” value is 0.155 and 0.189 and 0.168 and 0.111. Further, in assay [2] (setting [5]), the “Absorbance values for individual sera tested on influenzavirus strain Wuhan, Pre” value is 0.063 and 0.060 and 0.062 and 0.083. Further, the “Absorbance values for individual sera tested on influenzavirus strain Wuhan, Pre” value in assay [2] (setting [6]) is 0.077 and 0.084 and 0.057 and 0.086. Also, in assay [2] (setting [7]), the “Anti-Wuhan Absorbance Day 42 (individual mice)” value is 0.086 and 0.100 and 0.527 and 0.090; the “Anti-Wuhan Absorbance Pre-Bleed (individual mice)” value is 0.063 and 0.060 and 0.062 and 0.083. In assay [2] (setting [8]), the “Anti-Wuhan Absorbance Day 42 (individual mice)” value was 0.132 and 0.431 and 0.093 and 0.068; the “Anti-Wuhan Absorbance Pre-Bleed (individual mice)” value is 0.077 and 0.084 and 0.057 and 0.086. For the same molecule, in assay [2] (setting [9]), the “Anti-Wuhan Absorbance Day 42 (group average)” value stood at 0.201 and the “Anti-Wuhan Absorbance Pre-Bleed (group average)” value amounted to 0.067. In addition, in assay [2] (setting [10]), the “Anti-Wuhan Absorbance Day 42 (group average)” value is reported as 0.181 and the “Anti-Wuhan Absorbance Pre-Bleed (group average)” value is listed as 0.076.
In the case of “HYEECSCYDWSGYSGSFVQHPELTGLHYEECSCYQYIKANSKFIGITE [Peptide 5908]”, in assay [4], the “immune response against Influenza H1N1, H3N2, and H5N1” value is reported as “raised an immune response”.
As for “MSLLTEVETPIRNEWGCRCNDSSD [Peptide M2e, reference compound]”, in the assay with live H3N2 virus, the “IgG titers to live H3N2 virus (ELISA)” value is reported as “no particular advantage over small epitopic peptide fragments”.
For KSCINRCFYVELIRGR [Peptide 5914], in assay [1] (5 μg per injection), the “Average Absorbance Values of sera … Day 14” value amounted to 0.128; the “Average Absorbance Values of sera … Day 29” value was 0.181; the “Average Absorbance Values of sera … Day 42” value came to 0.284; the “Average Absorbance Values of sera … Pre” value is given as 0.126. Besides, in assay [1] (5 μg per injection), the “Individual absorbancy values of sera … Pre” value was 0.110 and 0.133 and 0.136 and 0.126; the “Individual absorbancy values … Day 14” value was 0.117 and 0.123 and 0.156 and 0.118; the “Individual absorbancy values … Day 29” value is 0.248 and 0.136 and 0.219 and 0.121; the “Individual absorbancy values … Day 42” value is 0.388 and 0.264 and 0.357 and 0.127. For the same molecule, in assay [1] (20 μg per injection), the “Average Absorbance Values of sera … Day 14” value is 0.174; the “Average Absorbance Values of sera … Day 29” value is 0.171; the “Average Absorbance Values of sera … Day 42” value is listed as 0.411; the “Average Absorbance Values of sera … Pre” value is recorded as 0.146. In addition, in assay [1] (20 μg per injection), the “Individual absorbancy values of sera … Pre” value was 0.165 (2×) and 0.133 and 0.123; the “Individual absorbancy values … Day 14” value was 0.213 and 0.150 and 0.153 and 0.180; the “Individual absorbancy values … Day 29” value is 0.175 and 0.214 and 0.141 and 0.156; the “Individual absorbancy values … Day 42” value is 0.284 and 0.480 and 0.646 and 0.234. For the same molecule, the “Absorbance values for individual sera tested on influenzavirus strain Wuhan, Day 42” value in assay [2] (mice, 5 μg per injection, day 42, sera 1:100) is listed as 0.172. Also, the “Absorbance values for individual sera tested on influenzavirus strain Wuhan, Pre” value in assay [2] (setting [5]) is 0.062 and 0.059 and 0.090 and 0.083. In addition, the “Absorbance values for individual sera tested on influenzavirus strain Wuhan, Pre” value in assay [2] (setting [6]) was 0.099 and 0.132 and 0.068 and 0.080. Moreover, in assay [2] (setting [7]), the “Anti-Wuhan Absorbance Day 42 (individual mice)” value was 0.176 and 0.329 and 0.239 and 0.096; the “Anti-Wuhan Absorbance Pre-Bleed (individual mice)” value was 0.062 and 0.059 and 0.090 and 0.083. Besides, in assay [2] (setting [8]), the “Anti-Wuhan Absorbance Day 42 (individual mice)” value was 0.156 and 0.408 and 0.296 and 0.182; the “Anti-Wuhan Absorbance Pre-Bleed (individual mice)” value was 0.099 and 0.132 and 0.068 and 0.080. In assay [2] (setting [9]), the “Anti-Wuhan Absorbance Day 42 (group average)” value is 0.210 and the “Anti-Wuhan Absorbance Pre-Bleed (group average)” value turned out to be 0.073. For the same molecule, in assay [2] (setting [10]), the “Anti-Wuhan Absorbance Day 42 (group average)” value stood at 0.260 and the “Anti-Wuhan Absorbance Pre-Bleed (group average)” value was found to be 0.094.

B1: GNLFIAPGNLFIAPHYEECSCYHYEECSCYQYIKANSKFIGITEHYEECSCYTPIRNETPIRNE (peptide)
chain: GNLFIAPGNLFIAPHYEECSCYHYEECSCYQYIKANSKFIGITEHYEECSCYTPIRNETPIRNE
For the molecule B1, in assay [4], the “immune response against Influenza H1N1, H3N2, and H5N1” value is on record as “raised an immune response”.
